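Step 1: Grow cells in 96-well plates. Step 2: Expose to compound for 48 hours at 5 concentrations. Step 3: Interpolate endpoints linearly; if unreached, use highest concentration. At the TGI there is no net growth.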

The first test relates to 786-0 renal. Description: NCI tumour cell line growth inhibition, 48 h.
`CN(N=O)C(=O)ON1C(=O)CCC1=O` had a TGI of more than 100 µM.
In turn, `O=c1[nH]cc(COCCCO)c(=O)[nH]1` registered a TGI of more than 100 µM.
Consider `C/C=C1\CN2CCc3c([nH]c4ccccc34)C2CC1C(=O)OC` (centres undefined), for which the TGI was more than 322 µM.

A further test has as its system A498 renal. Description: NCI tumour cell line growth inhibition, 48 h.
Consider `CN(N=O)C(=O)ON1C(=O)CCC1=O`, for which the TGI was more than 100 µM.
In turn, `O=C1OC2(CC1C1(O)C3CC4CC(C3)CC1C4)C1CC3CC(C1)CC2C3` (centres undefined) came in with a TGI of 84.5 µM.
`O=c1[nH]cc(COCCCO)c(=O)[nH]1` yielded a TGI of more than 100 µM.

The subject of the next test is A549 NSCLC. Description: NCI tumour cell line growth inhibition, 48 h.
On to `CN(N=O)C(=O)ON1C(=O)CCC1=O`, for which the TGI was more than 100 µM.
Regarding `O=C1OC2(CC1C1(O)C3CC4CC(C3)CC1C4)C1CC3CC(C1)CC2C3` (centres undefined), the TGI was more than 100 µM.
`O=c1[nH]cc(COCCCO)c(=O)[nH]1` showed a TGI of more than 100 µM.
`C/C=C1\CN2CCc3c([nH]c4ccccc34)C2CC1C(=O)OC` (centres undefined) had a TGI of more than 322 µM.

For another test, the system named is ACHN renal. Briefly: NCI tumour cell line growth inhibition, 48 h.
The compound `CN(N=O)C(=O)ON1C(=O)CCC1=O` yielded a TGI of more than 100 µM.
Consider `O=C1OC2(CC1C1(O)C3CC4CC(C3)CC1C4)C1CC3CC(C1)CC2C3` (centres undefined), for which the TGI was more than 100 µM.
Still for that read-out and setting: the figure for `O=c1[nH]cc(COCCCO)c(=O)[nH]1` is more than 100 µM; for `C/C=C1\CN2CCc3c([nH]c4ccccc34)C2CC1C(=O)OC` (centres undefined) it is more than 322 µM.

The next test relates to CAKI-1 renal. Briefly: NCI tumour cell line growth inhibition, 48 h.
In turn, `CN(N=O)C(=O)ON1C(=O)CCC1=O` came in with a TGI of more than 100 µM.
Compound `O=c1[nH]cc(COCCCO)c(=O)[nH]1` returned a TGI of more than 100 µM.
`C/C=C1\CN2CCc3c([nH]c4ccccc34)C2CC1C(=O)OC` (centres undefined): the TGI was more than 322 µM.

The next test concerns CCRF-CEM leukemia. Briefly: NCI tumour cell line growth inhibition, 48 h.
On to `CN(N=O)C(=O)ON1C(=O)CCC1=O`, for which the TGI is more than 100 µM.
Regarding `O=C1OC2(CC1C1(O)C3CC4CC(C3)CC1C4)C1CC3CC(C1)CC2C3` (centres undefined), the TGI was more than 100 µM.
`O=c1[nH]cc(COCCCO)c(=O)[nH]1` showed a TGI of more than 100 µM.
As to `C/C=C1\CN2CCc3c([nH]c4ccccc34)C2CC1C(=O)OC` (centres undefined), the TGI was more than 322 µM.

Another test concerns COLO 205 colon. Briefly: NCI tumour cell line growth inhibition, 48 h.
As to `O=c1[nH]cc(COCCCO)c(=O)[nH]1`, the TGI was more than 100 µM.
`C/C=C1\CN2CCc3c([nH]c4ccccc34)C2CC1C(=O)OC` (centres undefined): the TGI is more than 322 µM.

For a further test, the system named is DLD-1 colon. Briefly: NCI tumour cell line growth inhibition, 48 h.
In turn, `CN(N=O)C(=O)ON1C(=O)CCC1=O` displayed a TGI of more than 100 µM.
For the compound `O=C1OC2(CC1C1(O)C3CC4CC(C3)CC1C4)C1CC3CC(C1)CC2C3` (centres undefined), the TGI is more than 100 µM.
Regarding `O=c1[nH]cc(COCCCO)c(=O)[nH]1`, the TGI is more than 100 µM.
Consider `C/C=C1\CN2CCc3c([nH]c4ccccc34)C2CC1C(=O)OC` (centres undefined), for which the TGI was more than 322 µM.

For the next test, the system named is DMS 114 small cell lung. Briefly: NCI tumour cell line growth inhibition, 48 h.
`CN(N=O)C(=O)ON1C(=O)CCC1=O` displayed a TGI of more than 100 µM.
`O=C1OC2(CC1C1(O)C3CC4CC(C3)CC1C4)C1CC3CC(C1)CC2C3` (centres undefined) displayed a TGI of more than 100 µM.

The next test deals with DMS 273 small cell lung. Briefly: NCI tumour cell line growth inhibition, 48 h.
The compound `CN(N=O)C(=O)ON1C(=O)CCC1=O` had a TGI of more than 100 µM.
Still for that read-out and setting: to `O=C1OC2(CC1C1(O)C3CC4CC(C3)CC1C4)C1CC3CC(C1)CC2C3` (centres undefined) belongs more than 100 µM.
`O=c1[nH]cc(COCCCO)c(=O)[nH]1` yielded a TGI of more than 100 µM.
In turn, `C/C=C1\CN2CCc3c([nH]c4ccccc34)C2CC1C(=O)OC` (centres undefined) had a TGI of more than 322 µM.

A further test relates to EKVX NSCLC. Description: NCI tumour cell line growth inhibition, 48 h.
Turning to `CN(N=O)C(=O)ON1C(=O)CCC1=O`, the TGI is more than 100 µM.
Still for that read-out and setting: the figure for `O=c1[nH]cc(COCCCO)c(=O)[nH]1` is more than 100 µM; for `C/C=C1\CN2CCc3c([nH]c4ccccc34)C2CC1C(=O)OC` (centres undefined) it is more than 322 µM.

The next test relates to HCC-2998 colon. Description: NCI tumour cell line growth inhibition, 48 h.
As to `CN(N=O)C(=O)ON1C(=O)CCC1=O`, the TGI was more than 100 µM.
In the case of `C/C=C1\CN2CCc3c([nH]c4ccccc34)C2CC1C(=O)OC` (centres undefined), the TGI is more than 322 µM.

Another test has as its system HCT-116 colon. Briefly: NCI tumour cell line growth inhibition, 48 h.
Compound `CN(N=O)C(=O)ON1C(=O)CCC1=O` came in with a TGI of more than 100 µM.
Compound `O=C1OC2(CC1C1(O)C3CC4CC(C3)CC1C4)C1CC3CC(C1)CC2C3` (centres undefined) gave a TGI of more than 100 µM.
Regarding `O=c1[nH]cc(COCCCO)c(=O)[nH]1`, the TGI is more than 100 µM.
Still for that read-out and setting: the figure for `C/C=C1\CN2CCc3c([nH]c4ccccc34)C2CC1C(=O)OC` (centres undefined) is more than 322 µM.

A further test concerns HCT-15 colon. Description: NCI tumour cell line growth inhibition, 48 h.
The compound `CN(N=O)C(=O)ON1C(=O)CCC1=O` returned a TGI of more than 100 µM.
For the compound `O=C1OC2(CC1C1(O)C3CC4CC(C3)CC1C4)C1CC3CC(C1)CC2C3` (centres undefined), the TGI was more than 100 µM.
Still for that read-out and setting: the figure for `O=c1[nH]cc(COCCCO)c(=O)[nH]1` is more than 100 µM; for `C/C=C1\CN2CCc3c([nH]c4ccccc34)C2CC1C(=O)OC` (centres undefined) it is more than 322 µM.

A further test concerns HL-60(TB) leukemia. Briefly: NCI tumour cell line growth inhibition, 48 h.
`CN(N=O)C(=O)ON1C(=O)CCC1=O` yielded a TGI of more than 100 µM.
In turn, `O=C1OC2(CC1C1(O)C3CC4CC(C3)CC1C4)C1CC3CC(C1)CC2C3` (centres undefined) displayed a TGI of more than 100 µM.
With `O=c1[nH]cc(COCCCO)c(=O)[nH]1`, the TGI is more than 100 µM.

Values taken from PubChem BioAssay (NCI).
